Consider eight compounds from patent US20260216326A1, “METHODS OF TREATING INFLAMMATORY DISEASES WITH COMBINATION OF TL1A INHIBITORS AND S1PR INHIBITORS” (Prometheus Biosciences, Inc., priority 2022, published 2026).

“Also recorded” adds a separate entry of the source. Read-outs that look alike come from different tables or passages of the source.

Data set [1] has as its system IL10−/− mice. Put plainly: IL10−/− model of murine colitis. The class given is in vivo, mouse. As for the experimental part:
IL10−/− and WT mice on the C57BL/6 background are monitored for body weight every other day. IL10−/− mice begins to manifest symptoms of colitis by 4 weeks of age compared with WT mice, including diarrhea and weight loss greater than 5%. Treatment protocols are initiated when the mice are between 14-18 weeks of age.
By 14−18 weeks of age, IL10−/− mice develop sufficiently severe symptoms of disease to being testing therapeutic treatments. For four weeks, mice are treated weekly with Intraperitoneal (I.P.) anti-TL1a injection and daily with oral FTY720 (S1PR inhibitor, anti-S1PR) according to Table 61. Group 1 serves as the naïve control and Group 2 is treated with isotype and vehicle controls. Groups 3 and 4 test the high dose of either TL1a or S1PR blockade, respectively. Groups 5 and 6 test the low dose of either TL1a or S1PR blockade. Groups 7 and 8 test the high and low dose combination therapies, respectively.
(§1) At day 28 after initiation of treatment, mice are anaesthetized and bled by cardiac puncture. Blood is kept on ice for 30 minutes and then spun down to separate the serum, which is stored at −80 C for cytokine measurement by MSD. After the terminal bleed, mice are euthanized by CO2 overdose per IACUC guidelines. Colons are harvested for each mouse and measured for length and weight. 1 cm of the middle colon is collected into RNAlater, and kept at room temperature for 2 hours prior to freezing at −80 C. The colonic tissue preserved in RNAlater is processed for mRNA and subjected to bulk RNA sequencing and standard differential gene expression analysis. The remainder of the proximal and distal colon is preserved in 10% NBF at room temperature for 48 hours prior to moving to 70% ethanol. These preserved colonic tissues are sectioned and stained by H&E prior to analysis by a veterinary pathologist for clinical signs of colitis.

Data set [2] has as its system Rag2−/− mice receiving CD4+CD45RB+ T cells. Put plainly: T cell transfer model of murine colitis. In kind it is in vivo, mouse.
Source text: The murine T cell transfer model of colitis is used to test the synergistic effect of blocking TL1A and S1P on the development of colitis using a mouse-specific TL1A antibody (anti-TL1A) and S1PR functional antagonist (FTY720). To initiate colitis, CD4+CD45RB+ T cells from the spleens of C57BL/6 mice are sorted to >95% purity and transferred by I.V. injection to Rag2−/− mice lacking mature B and T cells (0.5e6 cells/mouse), which are then randomized by weight on day 0. Mice are weighed and monitored for signs of disease every other day for 7 weeks.
One day prior to the initiation of disease (day-1) and weekly throughout the course of the experiment, mice are treated with a single I.P. injection of anti-TL1A in 0.2 ml total volume according to Table 64. In addition, FTY720 or the appropriate vehicle control is orally dosed daily according to Table 64. Group 1 serve as the naïve control and Group 2 is treated with isotype control antibodies. Groups 3 and 4 test the high dose of either anti-TL1A or FTY720, respectively. Groups 5 and 6 test the low dose of either anti-TL1A or FTY720. Groups 7 and 8 test the high and low dose combination therapies, respectively.
as §1, with “49” for “28”, “disease induction with CD4+CD45RB+ T cell transfer,” for “initiation of treatment,”, “and” for “and standard”, “These preserved colonic tissues are sectioned and stained by H&E prior to analysis by a veterinary pathologist for clinical signs of colitis.” left out

Data set [3] concerns the target T1, S1P3 (Homo sapiens, UniProt Q99500). Conditions: cited from earlier work.
Target sequence in this assay (Q99500 whole entry, species assumed): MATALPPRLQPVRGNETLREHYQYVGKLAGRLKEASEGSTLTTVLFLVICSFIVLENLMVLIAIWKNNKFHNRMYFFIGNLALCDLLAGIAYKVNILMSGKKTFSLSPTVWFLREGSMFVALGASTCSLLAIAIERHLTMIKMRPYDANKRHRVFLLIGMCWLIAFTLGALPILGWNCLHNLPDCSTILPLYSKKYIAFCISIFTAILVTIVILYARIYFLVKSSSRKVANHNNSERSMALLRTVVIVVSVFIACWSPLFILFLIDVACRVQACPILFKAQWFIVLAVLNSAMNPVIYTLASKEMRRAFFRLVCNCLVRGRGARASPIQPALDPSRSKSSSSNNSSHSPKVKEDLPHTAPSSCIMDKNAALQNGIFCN
The target of data set [4] is T2, S1P4 (Homo sapiens, UniProt O95977).
T2 sequence (O95977 1-384): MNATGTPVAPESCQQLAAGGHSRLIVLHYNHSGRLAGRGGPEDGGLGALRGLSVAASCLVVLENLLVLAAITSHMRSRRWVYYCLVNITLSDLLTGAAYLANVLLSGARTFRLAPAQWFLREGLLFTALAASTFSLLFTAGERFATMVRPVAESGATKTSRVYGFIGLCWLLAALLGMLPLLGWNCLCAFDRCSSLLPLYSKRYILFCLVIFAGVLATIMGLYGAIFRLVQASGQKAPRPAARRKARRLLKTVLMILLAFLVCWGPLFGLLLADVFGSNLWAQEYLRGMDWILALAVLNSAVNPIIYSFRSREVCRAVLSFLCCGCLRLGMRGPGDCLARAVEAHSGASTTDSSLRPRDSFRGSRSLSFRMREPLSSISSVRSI
Conditions: cited from earlier work.

The target of data set [5] is S1P2 (Homo sapiens, UniProt O95136). Particulars: cited from earlier work.
In data set [6] the test system is peripheral lymphocytes. Conditions: mice, 24 h after oral dosing; cited from earlier work.
The target of data set [7] is T3, S1P1 (Homo sapiens, UniProt P21453). Conditions: cited from earlier work.
The target of data set [8] is recombinant mouse S1P1 receptors (Mus musculus, UniProt O08530). Conditions: read-out: EC50, agonist of S1P1 receptors; cited from earlier work.
The target of data set [9] is T2, S1P4. Particulars: cited from earlier work. This is another data set of the same source.
Data set [10] addresses human S1P5 (Homo sapiens, UniProt Q9H228). Conditions: cited from earlier work.
Data set [11] has as its target recombinant dog S1P1 receptors. Particulars: read-out: EC50, agonist of S1P1 receptors; cited from earlier work.
Data set [12] addresses recombinant monkey S1P1 receptors. Particulars: read-out: EC50, agonist of S1P1 receptors; cited from earlier work.
Data set [13] addresses T1, S1P3. Particulars: cited from earlier work. The source holds these as a separate data set.
Target sequence in this assay (Q99500 whole entry): as the sequence (Q99500 whole entry, species assumed) above
The target in data set [14] is human Sphingosine-1-phosphate receptor 2 (S1P2 or S1PR2) (Homo sapiens, UniProt O95136). Conditions: cited from earlier work.
Data set [15] deals with sphingosine-1-phosphate receptor 1 (S1P1) (Homo sapiens, UniProt P21453). Conditions: binding; cited from earlier work.
The target of data set [16] is T3, S1P1. Conditions: read-out: ED50 value, agonistic activity on S1P1; cited from earlier work.
In data set [17] the target is T1, S1P3. Particulars: read-out: ED50 value on S1P3; cited from earlier work.
Target sequence in this assay (Q99500 whole entry, species assumed): as the sequence (Q99500 whole entry, species assumed) above
Data set [18] has as its target T1, S1P3. Particulars: cited from earlier work. This is another data set of the same source.
Target sequence in this assay (Q99500 whole entry, species assumed): as the sequence (Q99500 whole entry, species assumed) above
Data set [19] deals with T3, S1P1. Conditions: cited from earlier work. This is another data set of the same source.
Data set [20] concerns CD20-expressing Raji cell. Put plainly: CDC positive control with Rituxan. The class given is cell-based, human. Here is the method: Test articles were evaluated for CDC activity, compared to negative control Human IgG4 isotype control, on TL1A-expressing HEK293 target cells. Rituxan (anti-CD20) was used as a positive technical control on CD20-expressing Raji cell. All test articles were used at a final top concentration of 10 μg/mL followed by a five-fold dilution series (7 points total), in addition to a no treatment control, in triplicate. Cells were incubated with test articles for 15 minutes at 37 C, then treated with human complement, at a final concentration of 25%, for 3 hours at 37 C, 5% CO2. Following incubation, cells were washed and resuspended in Propidium Iodide (P.I.) at a final concentration of 5 μg/mL prior to flow cytometry analysis. Total cells were examined by flow cytometry during sample acquisition. Data were plotted on an XY chart, graphing percentage P.I. positive cells against the log of the concentration and fit to a non-linear regression curve. Cell cytotoxicity in the presence of all test articles was not distinguishable from cell cytotoxicity in the presence of isotype control (Table 12).

In data set [21] the test system is human whole blood. Put plainly: Human cytokine release assay, whole blood. In kind it is cell-based.

T3 sequence (P21453 whole entry, species assumed): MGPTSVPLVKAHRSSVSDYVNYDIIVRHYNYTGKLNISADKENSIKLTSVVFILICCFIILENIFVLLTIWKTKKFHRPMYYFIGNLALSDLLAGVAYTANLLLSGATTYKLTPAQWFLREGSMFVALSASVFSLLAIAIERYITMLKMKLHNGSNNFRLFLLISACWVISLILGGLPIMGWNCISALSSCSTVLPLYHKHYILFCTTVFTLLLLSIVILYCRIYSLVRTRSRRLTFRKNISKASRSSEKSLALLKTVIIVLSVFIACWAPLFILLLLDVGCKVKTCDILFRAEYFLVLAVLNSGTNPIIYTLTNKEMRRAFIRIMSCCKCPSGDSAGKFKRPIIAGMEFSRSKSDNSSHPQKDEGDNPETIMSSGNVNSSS
Chain of human S1P5 (Q9H228 whole entry): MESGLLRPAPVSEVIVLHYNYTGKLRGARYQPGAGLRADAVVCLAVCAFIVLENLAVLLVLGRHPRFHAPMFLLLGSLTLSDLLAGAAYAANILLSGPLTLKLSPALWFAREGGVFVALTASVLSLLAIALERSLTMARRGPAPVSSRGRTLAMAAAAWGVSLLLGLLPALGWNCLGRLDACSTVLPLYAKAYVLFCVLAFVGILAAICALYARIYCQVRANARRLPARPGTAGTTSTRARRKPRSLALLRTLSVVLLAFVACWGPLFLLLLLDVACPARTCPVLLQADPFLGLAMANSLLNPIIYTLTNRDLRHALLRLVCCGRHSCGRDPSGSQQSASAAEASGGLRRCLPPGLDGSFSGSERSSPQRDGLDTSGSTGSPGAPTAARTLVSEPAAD
Chain of recombinant mouse S1P1 receptors (O08530 whole entry): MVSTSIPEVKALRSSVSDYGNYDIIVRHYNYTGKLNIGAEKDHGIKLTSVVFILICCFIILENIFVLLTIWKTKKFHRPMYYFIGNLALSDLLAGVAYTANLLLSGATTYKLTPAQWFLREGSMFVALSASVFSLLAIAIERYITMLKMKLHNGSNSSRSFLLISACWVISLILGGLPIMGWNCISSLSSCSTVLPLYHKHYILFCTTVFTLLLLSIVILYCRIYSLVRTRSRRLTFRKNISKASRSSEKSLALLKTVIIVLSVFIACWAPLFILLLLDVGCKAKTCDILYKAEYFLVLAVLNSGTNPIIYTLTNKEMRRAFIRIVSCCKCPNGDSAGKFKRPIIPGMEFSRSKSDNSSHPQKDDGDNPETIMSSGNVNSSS
Chain of human Sphingosine-1-phosphate receptor 2 (S1P2 or S1PR2) (O95136 whole entry): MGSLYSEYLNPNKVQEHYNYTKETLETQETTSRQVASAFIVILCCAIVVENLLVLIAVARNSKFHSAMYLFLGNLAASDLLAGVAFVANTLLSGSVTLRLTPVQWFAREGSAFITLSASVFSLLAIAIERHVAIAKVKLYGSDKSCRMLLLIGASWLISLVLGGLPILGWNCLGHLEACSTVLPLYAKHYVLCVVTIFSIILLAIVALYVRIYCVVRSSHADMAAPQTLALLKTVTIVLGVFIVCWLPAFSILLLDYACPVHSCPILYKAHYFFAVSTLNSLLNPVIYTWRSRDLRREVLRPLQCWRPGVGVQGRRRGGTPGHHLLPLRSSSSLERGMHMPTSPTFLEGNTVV
Chain of S1P2 (O95136 whole entry, species assumed): as the sequence (O95136 whole entry) above
Chain of sphingosine-1-phosphate receptor 1 (S1P1) (P21453 whole entry, species assumed): as the sequence (P21453 whole entry, species assumed) above

With `CCCCCCCCc1ccc(CCC(N)(CO)CO)cc1` [FTY720], the disease per histopathology result in [1] (colonic tissue) and in [2] (colonic tissue) was “reduces disease per histopathology in a dose dependent manner” in each case. Besides, the “serum inflammatory cytokines (MSD)” value in [1] (mouse, in vivo) is reported as “Reduced levels of inflammatory cytokines”; in data set [2] (mouse, in vivo) it was “Reduced levels of inflammatory cytokines”. Also, the body weight loss result is on record as “alleviates body weight loss in a dose-dependent manner” in data set [1] (single agents, Groups 3-6) and “alleviates body weight loss in a dose-dependent manner” in data set [2] (single agents, Groups 3-6).

As to `CCCCCCCOc1ccc(CCC(N)(CO)CO)cc1C(F)(F)F` [amiselimod, 2-amino-2-{2-[4-(heptyloxy)-3-(trifluoromethyl)phenyl]ethyl}propan-1,3-diol], the “agonist activity for S1P3” value in data set [3] is listed as “no distinct agonist activity”. Further, the “agonist activity for S1P4” value in [4] is “minimal agonist activity”. The “agonist activity for S1P2” value in [5] is reported as “no distinct agonist activity”.

With `CCCc1ccc(COc2ccc3c(c2)CCC(CN2CC(C(=O)O)C2)=C3C)c(OC)c1` [ceralifimod, 1-({6-[(2-methoxy-4-propylbenzyl)oxy]-1-methyl-3,4-dihydronaphthalen-2-yl}methyl) azetidine-3-carboxylic acid], the “ED50, peripheral lymphocyte lowering (PLL) test” value in data set [6] is on record as 0.029 mg/kg. For the same compound, the “selectivity for S1P1 over S1P3” value in data set [7] was > 30 000 fold.

For `O=C(O)C[C@H]1CCc2c1[nH]c1ccc(OCc3ccc(C4CCCC4)c(C(F)(F)F)c3)cc21` [etrasimod, (R)-2-(7-(4-cyclopentyl-3-(trifluoromethyl)benzyloxy)-1,2,3,4-tetrahydrocyclopenta[b]indol-3-yl) acetic acid], the EC50 was 3.65 nM in data set [8], 4.19 nM in data set [11] and 8.7 nM in data set [12]. For the same compound, the entries for the “relative efficacy, % of S1P response” value in data set [9] and in [10] were 63% and 73%, respectively. Further, the “agonist or antagonist activity” value in [13] and in data set [14] was “neither agonist nor antagonist activity was observed” each time.

With `NC(CO)(CO)CCc1ccc(Sc2cccc(OCc3ccccc3)c2)cc1Cl` [mocravimod, 2-amino-2-{2-[4-(3-benzyloxyphenylthio)-2-chlorophenyl]ethyl}-1,3-propanediol], the “selectivity for S1P1 over S1P2 and S1P5” value in data set [15] is 100 fold. Besides, the EC50 was 0.84 nM in data set [16] and more than 1000 nM in data set [17].

Take `CCC/N=C1\S/C(=C\c2ccc(OC[C@H](O)CO)c(Cl)c2)C(=O)N1c1ccccc1C` [ponesimod, (2Z,5Z)-5-[3-chloro-4-[(2R)-2,3-dihydroxypropoxy]benzylidene]-3-(2-methylphenyl)-2-(propylimino)-1,3-thiazolidin-4-one]: the “potency for S1P3, lower compared with the natural ligand” value in [18] was 150 fold. The “S1P1 selectivity, higher compared with the natural ligand” value in [19] (S1P1 versus S1P3) was “approximately 650 fold”. The “potency for S1P1, higher compared with the natural ligand” value in data set [19] (compared with the natural ligand) is listed as 4.4. Also, the EC50 in [19] (read-out: half maximal effective concentration (EC50), S1P1 activation) was 5.7 nM.

In the case of “Rituxan: anti-CD20 antibody, positive control in the CDC assay”, the “CDC bioactivity / complement-mediated lysis” value in data set [20] is on record as “CDC bioactivity was observed; also recorded: expected increase in complement-mediated lysis”.

Take Staphylococcal enterotoxin B [SEB]: the “cytokine release (IL-2, IL-6, IL-10, TNF, IFN-γ) in whole blood” value in data set [21] was “induced IL-2, IL-6, IL-10, TNF, and IFN-γ release”.
